# Where a name gives a salt, the structure may show the parent alone. Read-outs that look alike come from different tables or passages of the source. Where a SMILES comes first, the peptide text is derived from it. [ ]: non-standard residue; d: D form. The star is where a group is joined. Sta = CC(C)C[C@H](N)[C@@H](O)CC(=O)O; Isovaleryl = CC(C)CC(=O)*
# Legend:
# [1] = target: T1, SARS-CoV-2 PLpro (nsp3 1564–1878) (Severe acute respiratory syndrome coronavirus 2, UniProt P0DTD1); test: biochemical; set-up: FRET-quenched peptide (Pro3) cleavage by PLpro, 10 min pre-incubation, slope over 20 min, normalised to no-compound control; conditions: low concentration screen, read-out: % of control remaining
# [2] = target: T1, SARS-CoV-2 PLpro (nsp3 1564–1878); test: biochemical; set-up: FRET-quenched peptide (Pro3) cleavage by PLpro, 10 min pre-incubation, slope over 20 min, normalised to no-compound control; conditions: high concentration screen, read-out: % of control remaining
smiles,measurement,setting,value
Cc1nnc(NS(=O)(=O)c2ccc(N)cc2)s1 [Sulfamethizole],remaining activity at 1.25 µM,[1]; Well no.=7444,94.6%
same,remaining activity at 1.25 µM,[1]; Well no.=8179,108%
same,remaining activity at 3.75 µM,[2]; Well no.=7444,92.4%
same,remaining activity at 3.75 µM,[2]; Well no.=8179,106%
Cc1ccccc1N=Nc1ccc(NC(=O)c2ccnn2C)c(C)c1 [CH-223191],remaining activity at 1.25 µM,[1]; Well no.=5835,97.1%
same,remaining activity at 1.25 µM,[1]; Well no.=7892,99.1%
same,remaining activity at 3.75 µM,[2]; Well no.=5835,98.7%
same,remaining activity at 3.75 µM,[2]; Well no.=7892,95.5%
CCOC(=O)[C@H](CCc1ccccc1)N[C@@H](C)C(=O)N1C(=O)N(C)C[C@H]1C(=O)O [Imidapril hydrochloride],remaining activity at 1.25 µM,[1]; Well no.=5696,91.8%
same,remaining activity at 3.75 µM,[2]; Well no.=5696,92.9%
CCc1cncnc1N1CCN(Cc2nc3ccc(C(F)(F)F)cc3[nH]2)CC1 [PF-4708671],remaining activity at 1.25 µM,[1]; Well no.=4804,97%
same,remaining activity at 3.75 µM,[2]; Well no.=4804,94.4%
CCOC(=O)[C@H](CCc1ccccc1)N[C@@H](C)C(=O)N1[C@H](C(=O)O)C[C@@H]2CCC[C@@H]21 [Ramipril],remaining activity at 1.25 µM,[1]; Well no.=2195,94.4%
same,remaining activity at 1.25 µM,[1]; Well no.=7446,99.8%
same,remaining activity at 3.75 µM,[2]; Well no.=2195,93.2%
same,remaining activity at 3.75 µM,[2]; Well no.=7446,98.5%
C[C@@H]1CC(=O)NN=C1c1ccc(NN=C(C#N)C#N)cc1 [Levosimendan],remaining activity at 1.25 µM,[1]; Well no.=4902,101%
same,remaining activity at 3.75 µM,[2]; Well no.=4902,97.8%
O=C(c1ccc(Nc2nccc(-c3cc4ccccc4s3)n2)cc1)N1CCC(N2CCCC2)CC1 [IKK 16 - N-(4-Pyrrolidin-1-yl-piperidin-1-yl)-[4-(4-benzo[b]thiophen-2-yl-pyrimidin-2-ylamino)phenyl]carboxamide hydrochloride],remaining activity at 1.25 µM,[1]; Well no.=2542,100%
same,remaining activity at 3.75 µM,[2]; Well no.=2542,103%
CC(C)CC(=O)N[C@H](C(=O)N[C@H](C(=O)N[C@@H](CC(C)C)[C@@H](O)CC(=O)N[C@@H](C)C(=O)N[C@@H](CC(C)C)[C@@H](O)CC(=O)O)C(C)C)C(C)C [Pepstatin A] (Isovaleryl-VV[Sta]A[Sta]-OH),remaining activity at 1.25 µM,[1]; Well no.=8764,91.3%
same,remaining activity at 3.75 µM,[2]; Well no.=8764,92.8%
CCN1CCCC1CNC(=O)c1cc(S(N)(=O)=O)ccc1OC (stereo not shown) [Sulpiride],remaining activity at 1.25 µM,[1]; Well no.=6423,99.1%
same,remaining activity at 3.75 µM,[2]; Well no.=6423,97.9%
Cc1ccc(C(=O)Nc2ccc(S(=O)(=O)O)c3cc(S(=O)(=O)O)cc(S(=O)(=O)O)c23)cc1NC(=O)c1cccc(NC(=O)Nc2cccc(C(=O)Nc3cc(C(=O)Nc4ccc(S(=O)(=O)O)c5cc(S(=O)(=O)O)cc(S(=O)(=O)O)c45)ccc3C)c2)c1 [Suramin (sodium salt)],remaining activity at 1.25 µM,[1]; Well no.=8141,105%
same,remaining activity at 3.75 µM,[2]; Well no.=8141,98.9%
COC(=O)[C@H](CC(C)C)NC(=O)c1ccc(NC[C@@H](N)CS)cc1-c1cccc2ccccc12 [GGTI298 Trifluoroacetate],remaining activity at 1.25 µM,[1]; Well no.=8456,97.5%
same,remaining activity at 3.75 µM,[2]; Well no.=8456,86.9%
CC(C)c1cc(C(C)C)c(CC(=O)NS(=O)(=O)Oc2c(C(C)C)cccc2C(C)C)c(C(C)C)c1 [Avasimibe],remaining activity at 1.25 µM,[1]; Well no.=5705,99.6%
same,remaining activity at 1.25 µM,[1]; Well no.=8336,89.6%
same,remaining activity at 3.75 µM,[2]; Well no.=5705,96.6%
same,remaining activity at 3.75 µM,[2]; Well no.=8336,88%
CCCCCCCCCCCCCC(=O)O[C@@H]1[C@@H](C)[C@@]2(O)[C@@H](C=C(CO)C[C@@]3(O)C(=O)C(C)=C[C@@H]23)[C@@H]2C(C)(C)[C@]12OC(C)=O (racemic),remaining activity at 1.25 µM,[1]; Well no.=3080,98.8%
same,remaining activity at 3.75 µM,[2]; Well no.=3080,98.9%
C=CC(=O)c1ccc2ccccc2c1 [ZM 449829 - 1-(2-Naphthalenyl)-2-propen-1-one],remaining activity at 1.25 µM,[1]; Well no.=2388,105%
same,remaining activity at 3.75 µM,[2]; Well no.=2388,106%
COc1cc(NC(C)CCCN)c2ncccc2c1 (stereo not shown) [Primaquine],remaining activity at 1.25 µM,[1]; Well no.=2153,97.8%
same,remaining activity at 3.75 µM,[2]; Well no.=2153,98.9%
CC[C@@H](CO)NCCN[C@@H](CC)CO [Ethambutol HCl],remaining activity at 1.25 µM,[1]; Well no.=5072,99.5%
same,remaining activity at 3.75 µM,[2]; Well no.=5072,100%
CCCCCCCCCCCCCCCCCCC(=O)O [Nonadecanoic acid],remaining activity at 1.25 µM,[1]; Well no.=4362,100%
same,remaining activity at 3.75 µM,[2]; Well no.=4362,95.6%
C[N+](C)(C)CCCCCNCC12CC3CC(CC(C3)C1)C2 [IEM-1460],remaining activity at 1.25 µM,[1]; Well no.=524,105%
same,remaining activity at 3.75 µM,[2]; Well no.=524,105%
O=C(O)[C@H]1CCCN1C(=O)CCCCC(=O)N1CCC[C@@H]1C(=O)O [Miridesap],remaining activity at 1.25 µM,[1]; Well no.=8078,100%
same,remaining activity at 3.75 µM,[2]; Well no.=8078,97.4%
CC(CCC(=O)O)CC(=O)O (stereo not shown) [3-Methyladipic acid],remaining activity at 1.25 µM,[1]; Well no.=6533,107%
same,remaining activity at 3.75 µM,[2]; Well no.=6533,98.2%
CC[C@H](C)C(=O)O[C@H]1C[C@H](O)C=C2C=C[C@H](C)[C@H](CC[C@@H](O)C[C@@H](O)CC(=O)O)[C@H]21 [Pravastatin sodium salt hydrate],remaining activity at 1.25 µM,[1]; Well no.=5462,96.8%
same,remaining activity at 3.75 µM,[2]; Well no.=5462,97.8%
NNCCc1ccccc1 [Phenelzine sulfate],remaining activity at 1.25 µM,[1]; Well no.=1203,99.6%
same,remaining activity at 3.75 µM,[2]; Well no.=1203,98.7%
CCOC(=O)[C@@H](N)Cc1ccc(-c2cc(O[C@H](c3ccc(Cl)cc3-n3ccc(C)n3)C(F)(F)F)nc(N)n2)cc1 [Telotristat Etiprate (LX 1606 Hippurate)],remaining activity at 1.25 µM,[1]; Well no.=8288,92.6%
same,remaining activity at 3.75 µM,[2]; Well no.=8288,92.1%
C1CCC(C(CC2CCCCN2)C2CCCCC2)CC1 (stereo not shown) [Perhexiline maleate salt],remaining activity at 1.25 µM,[1]; Well no.=5958,97.2%
same,remaining activity at 3.75 µM,[2]; Well no.=5958,95.4%
C[C@H](NC(=O)c1cc(Cl)ccc1Oc1ccc(F)cc1)c1ccc(C(=O)O)cc1 [CJ-42794],remaining activity at 1.25 µM,[1]; Well no.=6222,98%
same,remaining activity at 3.75 µM,[2]; Well no.=6222,94.2%
CC(C)(C)c1nc2c3cc[nH]c(=O)c3c3cc(F)ccc3c2[nH]1 [JAK Inhibitor I],remaining activity at 1.25 µM,[1]; Well no.=2455,101%
same,remaining activity at 3.75 µM,[2]; Well no.=2455,103%
CCCCCCCC(=O)N[C@H](CN1CCCC1)[C@H](O)c1ccc2c(c1)OCCO2 [Eliglustat],remaining activity at 1.25 µM,[1]; Well no.=8530,100%
same,remaining activity at 3.75 µM,[2]; Well no.=8530,99%
OC[C@@H](O)[C@@H](O)[C@H](O)[C@@H](O)CO [Sorbitol],remaining activity at 1.25 µM,[1]; Well no.=8244,100%
same,remaining activity at 3.75 µM,[2]; Well no.=8244,99.8%
"N[C@@H](Cc1ccc(O)c(O)c1)C(=O)O [L-3,4-Dihydroxyphenylalanine]",remaining activity at 1.25 µM,[1]; Well no.=634,101%
same,remaining activity at 3.75 µM,[2]; Well no.=634,105%
C=C1C[C@H]2[C@@H]3C=C(C)C4=CC(=O)CC[C@]4(C)[C@H]3CC[C@]2(C)[C@@]1(OC(C)=O)C(C)=O [Melengestrol Acetate],remaining activity at 1.25 µM,[1]; Well no.=2238,99.1%
same,remaining activity at 3.75 µM,[2]; Well no.=2238,99.4%
CC(COc1ccccc1)N(CCCl)Cc1ccccc1 (stereo not shown) [Phenoxybenzamine.HCl],remaining activity at 1.25 µM,[1]; Well no.=1761,102%
same,remaining activity at 3.75 µM,[2]; Well no.=1761,101%

# — paper PMC8286840, “Identifying SARS-CoV-2 antiviral compounds by screening for small molecule inhibitors of Nsp3 papain-like protease” (Biochemical Journal, 2021)
